Data published in paper PMC4979471 (Cell Death Discovery, 2015).
Read-outs that look alike come from different tables or passages of the source.

Columns and labels:
Test in all cases: Kinase selectivity, P33-radiolabeled assay
Format in all cases: biochemical
Conditions in all cases: 10 μM ATP
AKT2 = target: T1, AKT2 (Homo sapiens, UniProt P31751)
T1 construct: purchased Reaction Biology Corp
Procedure, shortened: (§1)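 Activity relative to DMSO controls (%) was measured for compound at 10 μM. Assays ran at 10 μM ATP, in duplicate.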

CAMK2g = target: T2, CAMK2g (Homo sapiens, UniProt Q13555)
T2 construct: purchased Reaction Biology Corp
Procedure, shortened: as §1

EPHB3 = target: T3, EPHB3 (Homo sapiens, UniProt P54753)
T3 construct: purchased Reaction Biology Corp
T3 sequence (P54753 34-998): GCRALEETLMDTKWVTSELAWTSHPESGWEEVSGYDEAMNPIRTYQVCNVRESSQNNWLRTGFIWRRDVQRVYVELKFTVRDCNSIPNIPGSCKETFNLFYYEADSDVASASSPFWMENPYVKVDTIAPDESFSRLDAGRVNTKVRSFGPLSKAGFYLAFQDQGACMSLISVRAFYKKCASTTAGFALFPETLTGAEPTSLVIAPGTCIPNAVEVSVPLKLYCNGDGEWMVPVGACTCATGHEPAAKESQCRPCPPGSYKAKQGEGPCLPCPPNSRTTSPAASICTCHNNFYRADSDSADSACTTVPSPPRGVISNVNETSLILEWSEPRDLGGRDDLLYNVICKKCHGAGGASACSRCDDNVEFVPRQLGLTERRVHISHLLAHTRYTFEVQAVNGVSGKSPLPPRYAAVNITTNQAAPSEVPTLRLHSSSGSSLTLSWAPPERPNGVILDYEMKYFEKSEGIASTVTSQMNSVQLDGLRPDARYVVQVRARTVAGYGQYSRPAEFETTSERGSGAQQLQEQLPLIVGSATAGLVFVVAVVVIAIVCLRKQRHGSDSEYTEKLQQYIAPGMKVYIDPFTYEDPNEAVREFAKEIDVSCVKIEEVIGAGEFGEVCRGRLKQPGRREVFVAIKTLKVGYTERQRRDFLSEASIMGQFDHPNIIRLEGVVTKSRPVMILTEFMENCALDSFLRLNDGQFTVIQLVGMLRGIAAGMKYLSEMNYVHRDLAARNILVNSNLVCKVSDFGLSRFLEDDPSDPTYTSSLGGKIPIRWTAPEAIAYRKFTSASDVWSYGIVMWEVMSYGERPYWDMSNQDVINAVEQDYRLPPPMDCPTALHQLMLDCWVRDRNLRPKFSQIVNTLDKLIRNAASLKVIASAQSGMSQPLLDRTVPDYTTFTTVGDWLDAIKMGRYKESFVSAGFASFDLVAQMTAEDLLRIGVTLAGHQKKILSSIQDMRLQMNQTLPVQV
Procedure, shortened: as §1

HGK/MAP4K4 = target: T4, HGK/MAP4K4 (Homo sapiens, UniProt O95819)
T4 construct: purchased Reaction Biology Corp
Procedure, shortened: as §1

JAK2 = target: T5, JAK2 (Homo sapiens, UniProt O60674)
T5 construct: purchased Reaction Biology Corp
Procedure, shortened: as §1

MRCKb/CDC42BPB = target: T6, MRCKb/CDC42BPB (Homo sapiens, UniProt Q9Y5S2)
T6 construct: purchased Reaction Biology Corp
Procedure, shortened: as §1

MST4 = target: T7, MST4 (Homo sapiens, UniProt Q9P289)
T7 construct: purchased Reaction Biology Corp
Procedure, shortened: as §1

PIM3 = target: T8, PIM3 (Homo sapiens, UniProt Q86V86)
T8 construct: purchased Reaction Biology Corp
Procedure, shortened: as §1

STK16 = target: T9, STK16 (Homo sapiens, UniProt O75716)
T9 construct: purchased Reaction Biology Corp
Procedure, shortened: as §1

STK33 = target: T10, STK33 (Homo sapiens, UniProt Q9BYT3)
T10 construct: purchased Reaction Biology Corp
Procedure, shortened: as §1

TAOK3/JIK = target: T11, TAOK3/JIK (Homo sapiens, UniProt Q9H2K8)
T11 construct: purchased Reaction Biology Corp
T11 sequence (Q9H2K8 1-898): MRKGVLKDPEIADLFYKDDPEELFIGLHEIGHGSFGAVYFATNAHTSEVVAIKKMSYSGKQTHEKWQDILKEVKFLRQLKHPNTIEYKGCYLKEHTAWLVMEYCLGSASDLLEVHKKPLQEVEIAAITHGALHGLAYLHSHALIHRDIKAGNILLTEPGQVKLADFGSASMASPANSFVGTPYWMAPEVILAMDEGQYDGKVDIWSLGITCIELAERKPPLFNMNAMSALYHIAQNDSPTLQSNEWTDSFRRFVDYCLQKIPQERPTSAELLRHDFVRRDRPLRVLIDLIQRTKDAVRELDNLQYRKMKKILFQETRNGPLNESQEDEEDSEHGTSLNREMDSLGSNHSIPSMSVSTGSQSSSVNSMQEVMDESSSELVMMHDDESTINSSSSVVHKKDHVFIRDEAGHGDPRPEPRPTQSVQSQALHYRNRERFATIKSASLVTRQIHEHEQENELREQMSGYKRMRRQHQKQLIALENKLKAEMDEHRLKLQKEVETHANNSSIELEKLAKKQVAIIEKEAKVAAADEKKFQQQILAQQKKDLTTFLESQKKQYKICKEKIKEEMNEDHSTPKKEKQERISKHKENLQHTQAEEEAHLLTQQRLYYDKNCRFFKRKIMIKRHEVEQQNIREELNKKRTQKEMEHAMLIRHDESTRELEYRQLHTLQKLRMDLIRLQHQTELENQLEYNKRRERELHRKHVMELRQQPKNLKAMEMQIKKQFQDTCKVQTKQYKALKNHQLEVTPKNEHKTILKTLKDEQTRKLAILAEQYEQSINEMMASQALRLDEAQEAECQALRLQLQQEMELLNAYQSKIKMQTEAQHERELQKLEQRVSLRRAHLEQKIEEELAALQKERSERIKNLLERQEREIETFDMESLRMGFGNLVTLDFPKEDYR
Procedure, shortened: as §1

TNIK = target: T12, TNIK (Homo sapiens, UniProt Q9UKE5)
T12 construct: purchased Reaction Biology Corp
Procedure, shortened: as §1

[1] = read-out: % Enzyme Activity (relative to DMSO controls) AVG
[2] = read-out: % Enzyme Activity (relative to DMSO controls) Data 1
[3] = read-out: % Enzyme Activity (relative to DMSO controls) Data 2

T6 sequence (Q9Y5S2 whole entry): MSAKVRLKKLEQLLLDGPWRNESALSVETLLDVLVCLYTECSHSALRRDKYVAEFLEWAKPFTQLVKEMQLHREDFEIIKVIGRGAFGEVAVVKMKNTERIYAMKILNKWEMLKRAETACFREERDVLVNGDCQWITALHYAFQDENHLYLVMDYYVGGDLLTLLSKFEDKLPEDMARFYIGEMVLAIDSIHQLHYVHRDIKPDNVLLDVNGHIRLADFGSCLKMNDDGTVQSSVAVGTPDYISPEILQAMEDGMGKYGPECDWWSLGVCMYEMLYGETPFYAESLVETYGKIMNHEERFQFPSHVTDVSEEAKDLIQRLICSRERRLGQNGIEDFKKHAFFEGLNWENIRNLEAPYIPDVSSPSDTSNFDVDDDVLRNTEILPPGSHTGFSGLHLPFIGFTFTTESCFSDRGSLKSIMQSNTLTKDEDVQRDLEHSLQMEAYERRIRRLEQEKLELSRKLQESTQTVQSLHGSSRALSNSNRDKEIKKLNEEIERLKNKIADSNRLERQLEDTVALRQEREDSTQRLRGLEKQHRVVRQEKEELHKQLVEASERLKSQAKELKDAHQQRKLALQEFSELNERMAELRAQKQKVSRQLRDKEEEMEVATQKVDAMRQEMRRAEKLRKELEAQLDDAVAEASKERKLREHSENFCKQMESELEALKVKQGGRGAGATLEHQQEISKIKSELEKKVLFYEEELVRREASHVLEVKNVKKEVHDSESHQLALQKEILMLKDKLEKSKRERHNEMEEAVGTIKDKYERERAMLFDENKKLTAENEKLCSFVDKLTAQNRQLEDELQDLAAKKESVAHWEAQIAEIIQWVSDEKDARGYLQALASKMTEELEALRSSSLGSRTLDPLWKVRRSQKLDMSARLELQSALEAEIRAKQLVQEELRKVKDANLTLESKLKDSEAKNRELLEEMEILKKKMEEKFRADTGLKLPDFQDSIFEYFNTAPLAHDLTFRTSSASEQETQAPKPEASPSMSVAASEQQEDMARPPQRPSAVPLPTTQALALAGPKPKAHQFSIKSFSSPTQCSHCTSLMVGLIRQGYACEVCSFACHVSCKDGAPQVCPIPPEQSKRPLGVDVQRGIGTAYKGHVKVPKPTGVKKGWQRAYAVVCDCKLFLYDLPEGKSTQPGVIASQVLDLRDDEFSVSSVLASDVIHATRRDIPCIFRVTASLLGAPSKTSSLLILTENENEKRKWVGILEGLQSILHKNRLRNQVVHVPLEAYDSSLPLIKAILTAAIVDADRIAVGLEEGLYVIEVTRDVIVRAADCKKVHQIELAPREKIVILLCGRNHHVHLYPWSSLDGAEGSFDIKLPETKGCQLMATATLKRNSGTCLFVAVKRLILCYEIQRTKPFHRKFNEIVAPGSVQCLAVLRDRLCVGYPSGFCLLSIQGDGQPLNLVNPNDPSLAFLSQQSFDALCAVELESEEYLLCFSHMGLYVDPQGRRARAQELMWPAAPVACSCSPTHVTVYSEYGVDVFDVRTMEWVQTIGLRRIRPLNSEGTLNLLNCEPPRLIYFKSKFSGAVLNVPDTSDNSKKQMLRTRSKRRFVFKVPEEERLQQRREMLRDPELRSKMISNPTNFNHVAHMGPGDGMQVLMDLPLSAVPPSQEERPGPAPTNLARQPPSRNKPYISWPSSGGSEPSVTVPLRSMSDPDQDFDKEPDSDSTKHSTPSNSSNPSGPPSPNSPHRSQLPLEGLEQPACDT
T1 sequence (P31751 whole entry): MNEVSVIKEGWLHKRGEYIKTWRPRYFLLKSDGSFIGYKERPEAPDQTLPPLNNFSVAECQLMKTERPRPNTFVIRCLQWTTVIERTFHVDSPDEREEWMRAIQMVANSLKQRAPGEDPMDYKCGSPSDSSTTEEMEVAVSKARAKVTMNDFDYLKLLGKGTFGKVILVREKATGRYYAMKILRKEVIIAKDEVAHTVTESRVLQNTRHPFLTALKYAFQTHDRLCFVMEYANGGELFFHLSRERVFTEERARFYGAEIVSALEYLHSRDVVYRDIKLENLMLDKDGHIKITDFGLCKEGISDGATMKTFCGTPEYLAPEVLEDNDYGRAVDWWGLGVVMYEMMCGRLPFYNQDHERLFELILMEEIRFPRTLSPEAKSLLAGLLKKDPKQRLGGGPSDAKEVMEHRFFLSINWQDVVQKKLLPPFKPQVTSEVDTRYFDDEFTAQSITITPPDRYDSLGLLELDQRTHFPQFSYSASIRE
T9 sequence (O75716 whole entry): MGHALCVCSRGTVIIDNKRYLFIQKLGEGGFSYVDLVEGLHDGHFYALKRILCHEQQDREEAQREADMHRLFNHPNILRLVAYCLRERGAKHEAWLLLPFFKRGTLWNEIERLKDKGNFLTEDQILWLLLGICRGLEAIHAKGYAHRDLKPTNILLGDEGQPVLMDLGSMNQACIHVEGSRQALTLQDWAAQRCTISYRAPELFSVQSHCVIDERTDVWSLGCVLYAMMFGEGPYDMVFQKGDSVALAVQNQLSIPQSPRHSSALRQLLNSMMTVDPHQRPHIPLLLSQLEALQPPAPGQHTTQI
T10 sequence (Q9BYT3 whole entry): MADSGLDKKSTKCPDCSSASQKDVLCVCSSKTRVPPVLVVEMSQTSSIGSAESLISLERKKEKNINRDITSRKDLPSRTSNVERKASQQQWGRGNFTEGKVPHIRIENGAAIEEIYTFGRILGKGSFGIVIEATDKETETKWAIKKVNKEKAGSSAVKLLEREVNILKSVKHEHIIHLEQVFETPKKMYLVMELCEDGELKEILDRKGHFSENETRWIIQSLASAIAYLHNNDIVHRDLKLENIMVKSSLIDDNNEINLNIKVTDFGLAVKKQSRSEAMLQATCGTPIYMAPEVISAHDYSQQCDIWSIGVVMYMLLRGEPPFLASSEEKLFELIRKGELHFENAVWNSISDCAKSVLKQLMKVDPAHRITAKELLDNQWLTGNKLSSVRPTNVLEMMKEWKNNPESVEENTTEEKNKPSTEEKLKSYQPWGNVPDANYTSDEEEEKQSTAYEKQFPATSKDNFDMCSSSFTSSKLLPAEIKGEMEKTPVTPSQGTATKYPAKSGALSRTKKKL
T5 sequence (O60674 whole entry): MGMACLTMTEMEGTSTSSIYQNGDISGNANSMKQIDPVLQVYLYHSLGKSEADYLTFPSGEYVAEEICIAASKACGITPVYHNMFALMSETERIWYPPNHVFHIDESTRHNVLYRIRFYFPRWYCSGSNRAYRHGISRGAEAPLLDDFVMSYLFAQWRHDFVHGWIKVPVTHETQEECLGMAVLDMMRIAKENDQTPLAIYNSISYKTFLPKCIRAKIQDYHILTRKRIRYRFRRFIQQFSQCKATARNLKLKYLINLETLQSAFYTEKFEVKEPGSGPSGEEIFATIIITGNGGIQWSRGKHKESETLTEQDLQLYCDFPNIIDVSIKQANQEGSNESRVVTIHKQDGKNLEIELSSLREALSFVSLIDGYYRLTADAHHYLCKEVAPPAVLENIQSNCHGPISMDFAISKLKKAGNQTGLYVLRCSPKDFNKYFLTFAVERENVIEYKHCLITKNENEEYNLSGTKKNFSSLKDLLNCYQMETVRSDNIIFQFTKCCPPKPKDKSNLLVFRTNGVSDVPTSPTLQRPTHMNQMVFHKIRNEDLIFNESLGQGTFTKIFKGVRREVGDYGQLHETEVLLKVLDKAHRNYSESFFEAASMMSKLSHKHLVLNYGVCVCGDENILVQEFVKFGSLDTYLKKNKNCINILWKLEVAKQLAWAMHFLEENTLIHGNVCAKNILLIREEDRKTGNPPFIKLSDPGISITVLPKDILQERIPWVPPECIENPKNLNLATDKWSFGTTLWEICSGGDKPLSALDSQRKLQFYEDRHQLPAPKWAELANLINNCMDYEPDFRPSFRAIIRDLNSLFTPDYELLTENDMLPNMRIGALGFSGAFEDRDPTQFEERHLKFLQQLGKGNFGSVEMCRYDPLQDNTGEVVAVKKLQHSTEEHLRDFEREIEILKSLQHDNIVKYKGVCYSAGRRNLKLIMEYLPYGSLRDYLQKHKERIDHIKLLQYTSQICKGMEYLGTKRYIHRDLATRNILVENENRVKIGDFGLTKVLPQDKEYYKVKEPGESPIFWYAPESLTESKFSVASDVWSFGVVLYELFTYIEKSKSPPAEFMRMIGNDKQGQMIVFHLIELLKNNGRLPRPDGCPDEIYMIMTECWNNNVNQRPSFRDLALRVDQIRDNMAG
T2 sequence (Q13555 whole entry): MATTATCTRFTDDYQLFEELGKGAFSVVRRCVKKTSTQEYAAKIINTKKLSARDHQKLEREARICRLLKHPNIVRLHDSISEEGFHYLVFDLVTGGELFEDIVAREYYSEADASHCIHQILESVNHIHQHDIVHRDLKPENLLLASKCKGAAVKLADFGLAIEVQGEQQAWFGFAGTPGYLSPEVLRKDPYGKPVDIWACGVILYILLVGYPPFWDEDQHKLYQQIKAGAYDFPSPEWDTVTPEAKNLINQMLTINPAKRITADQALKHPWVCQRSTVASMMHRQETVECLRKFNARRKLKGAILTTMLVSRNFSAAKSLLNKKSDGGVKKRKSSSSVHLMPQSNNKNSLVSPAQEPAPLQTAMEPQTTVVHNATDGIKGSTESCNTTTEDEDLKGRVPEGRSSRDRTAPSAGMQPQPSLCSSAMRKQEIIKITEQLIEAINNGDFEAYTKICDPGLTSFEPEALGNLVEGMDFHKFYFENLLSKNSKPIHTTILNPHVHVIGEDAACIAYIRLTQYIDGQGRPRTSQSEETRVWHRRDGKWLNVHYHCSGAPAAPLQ

With `CC(C)(C)C(=O)N1N=CC[C@H]1c1ccccc1` [GSK′963] the remaining activity at 10 µM (AKT2; [1]) was 92.8%, the remaining activity at 10 µM (AKT2; [2]) was 91.7% and the remaining activity at 10 µM (AKT2; [3]) was 93.9%. It also gave a remaining activity at 10 µM (CAMK2g; [1]) of 115%, a remaining activity at 10 µM (CAMK2g; [2]) of 112% and a remaining activity at 10 µM (CAMK2g; [3]) of 118%. It also gave a remaining activity at 10 µM (EPHB3; [1]) of 105%, a remaining activity at 10 µM (EPHB3; [2]) of 103% and a remaining activity at 10 µM (EPHB3; [3]) of 107%. It also gave a remaining activity at 10 µM (HGK/MAP4K4; [1]) of 95.7%, a remaining activity at 10 µM (HGK/MAP4K4; [2]) of 94.5% and a remaining activity at 10 µM (HGK/MAP4K4; [3]) of 97%. The remaining activity at 10 µM (JAK2; [1]) was 105%, the remaining activity at 10 µM (JAK2; [2]) was 105% and the remaining activity at 10 µM (JAK2; [3]) was 105%. The remaining activity at 10 µM (MRCKb/CDC42BPB; [1]) was 106%, the remaining activity at 10 µM (MRCKb/CDC42BPB; [2]) was 109% and the remaining activity at 10 µM (MRCKb/CDC42BPB; [3]) was 102%. For the same molecule, the remaining activity at 10 µM (MST4; [1]) was 104%, the remaining activity at 10 µM (MST4; [2]) was 103% and the remaining activity at 10 µM (MST4; [3]) was 105%. It also gave a remaining activity at 10 µM (PIM3; [1]) of 116%, a remaining activity at 10 µM (PIM3; [2]) of 119% and a remaining activity at 10 µM (PIM3; [3]) of 113%. The remaining activity at 10 µM (STK16; [1]) was 101%, the remaining activity at 10 µM (STK16; [2]) was 101% and the remaining activity at 10 µM (STK16; [3]) was 101%. It also gave a remaining activity at 10 µM (STK33; [1]) of 103%, a remaining activity at 10 µM (STK33; [2]) of 104% and a remaining activity at 10 µM (STK33; [3]) of 102%. It also gave a remaining activity at 10 µM (TAOK3/JIK; [1]) of 98.2%, a remaining activity at 10 µM (TAOK3/JIK; [2]) of 99.2% and a remaining activity at 10 µM (TAOK3/JIK; [3]) of 97.3%. For the same molecule, the remaining activity at 10 µM (TNIK; [1]) was 106%, the remaining activity at 10 µM (TNIK; [2]) was 108% and the remaining activity at 10 µM (TNIK; [3]) was 104%.
